From patent US20240075243A1, “REUSABLE HYDROPHILIC URINARY CATHETER ASSEMBLY” (WELLSPECT AB, priority 2021, published 2024) come the findings set out here.

The subject of the test is E. coli. The experiment in a line: Disinfection effect of hydration liquids on catheters immersed in E. coli suspension. The format is cell-based. The conditions noted are these: 4 hours immersion, incubated at 37 deg. C for 19.5 hours. The source says:
In another line of experiments, hydration liquids with different types of disinfection mediums were used, and evaluated in respect of the disinfection effect. The hydration liquid comprised 5 wt % of PVP K30, and various disinfection mediums. As comparative examples, a hydration liquid with PVP K30 but without any disinfection medium was used, as well as a hydration liquid only comprising water. For the tests, catheters were first activated in a hydration liquid containing a disinfectant. Thereafter, the catheters were immersed in an E. coli suspension. The catheters were then rinsed in plain water, before again being immersed in the same hydration liquid used for the activation for 4 hours. Thereafter, the catheters were transferred into a growth medium and incubated at 37 deg. C for 19.5 hours. After this, it was determined whether, or not, bacterial growth had occurred during incubation.

As to `O=[N+]([O-])[O-].[Ag+]` [Silver nitrate, silver nitrate], the Result after incubation entry was “No growth” (disinfection medium 0.05 wt % in hydration liquid with 5 wt % PVP K30) and “No growth” (disinfection medium 0.2 wt % in hydration liquid with 5 wt % PVP K30). For `OCl` [Sodium hypochlorite, sodium hypochlorite], under “disinfection medium 0.02 wt % in hydration liquid with 5 wt % PVP K30”, the Result after incubation result is given as “No growth”.

On to `Oc1cc(Cl)ccc1Oc1ccc(Cl)cc1Cl` [Triclosan, triclosan], for which the Result after incubation result reads like this: (disinfection medium 0.075 wt % in hydration liquid with 5 wt % PVP K30) “No growth”; (disinfection medium 0.3 wt % in hydration liquid with 5 wt % PVP K30) “No growth”. Regarding benzalkonium chloride, the Result after incubation result was “No growth” (disinfection medium 0.025 wt % in hydration liquid with 5 wt % PVP K30) and “No growth” (disinfection medium 0.1 wt % in hydration liquid with 5 wt % PVP K30).
